From PubChem BioAssay (NCI) come the findings set out here.

Test systems include SW-620 colon; TK-10 renal; OVCAR-8 ovarian; CAKI-1 renal; OVCAR-5 ovarian; EKVX NSCLC; M14 melanoma; 786-0 renal; HCT-116 colon; HT29 colon.
Common to all, as to assay: NCI tumour cell line growth inhibition, 48 h

Values joined by “and” are separate entries in the source; they are usually repeats but may differ in a detail not shown here. Equal values may be shown once.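 All cell lines were grown in 96-well plates and treated with compound for 48 hours. Abbreviation: GI50, concentration required for 50% inhibition of growth. TGI: total growth inhibition.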

With `O=c1nc2occc2cn1C1CC(O)C(CO)O1` (stereo not given), the TGI in the assay with SW-620 colon, with TK-10 renal, in the assay on OVCAR-8 ovarian, in the assay with CAKI-1 renal, with OVCAR-5 ovarian and in the assay with EKVX NSCLC was over 100 µM throughout. In addition, the TGI in the assay with M14 melanoma, with 786-0 renal, in the assay with HCT-116 colon and in the assay with HT29 colon was over 100 µM each time.
For `O=S(=O)([O-])c1ccc2c(c1)-c1nc-2nc2[n-]c(nc3nc(nc4[n-]c(n1)c1ccc(S(=O)(=O)[O-])cc41)-c1cc(S(=O)(=O)[O-])ccc1-3)c1ccc(S(=O)(=O)[O-])cc21.[Cu+2].[Na+]`, the GI50 in the assay on SW-620 colon is 10.8 µM; with TK-10 renal, over 55.9 µM; in the assay on OVCAR-8 ovarian, over 100 µM; in the assay on CAKI-1 renal it was over 100 µM; with OVCAR-5 ovarian it was over 100 µM; in the assay with EKVX NSCLC, over 60.4 µM. The GI50 was over 37.4 µM in the assay with M14 melanoma, over 44 µM with 786-0 renal, 15.8 µM in the assay with HCT-116 colon and 3.32 µM in the assay with HT29 colon. Moreover, the TGI with SW-620 colon is over 71 µM; in the assay on TK-10 renal, over 100 µM; in the assay with OVCAR-8 ovarian, over 100 µM; in the assay on CAKI-1 renal, over 100 µM; in the assay on OVCAR-5 ovarian it was over 100 µM; in the assay with EKVX NSCLC, over 100 µM. For the same molecule, the TGI in the assay on M14 melanoma was over 100 µM; with 786-0 renal it was over 69.6 µM; with HCT-116 colon, over 100 µM; in the assay with HT29 colon it was over 100 µM.
With `COCCOc1cc(F)c2c(Nc3ccc(NC(=O)Cn4cc(C(C)C)nn4)cc3)ncnc2c1`, the GI50 is over 100 µM with SW-620 colon; over 100 µM with TK-10 renal; 37.4 µM in the assay on OVCAR-8 ovarian; over 100 µM in the assay on CAKI-1 renal; over 100 µM in the assay on OVCAR-5 ovarian; over 100 µM in the assay on EKVX NSCLC. The GI50 in the assay on M14 melanoma is over 100 µM; in the assay with 786-0 renal it was 39.1 µM; in the assay with HCT-116 colon it was 57.9 µM; in the assay with HT29 colon, over 100 µM. The TGI with SW-620 colon, in the assay with TK-10 renal, in the assay with OVCAR-8 ovarian, in the assay with CAKI-1 renal, in the assay with OVCAR-5 ovarian and with EKVX NSCLC was over 100 µM each time. Also, the TGI in the assay on M14 melanoma, in the assay with 786-0 renal, in the assay with HCT-116 colon and in the assay on HT29 colon was over 100 µM throughout.
For the molecule `CC(C)c1ccc(Nc2ccc3c(OCCCN4CCN(C)CC4)cccc3n2)cc1`, the GI50 in the assay on SW-620 colon was 8.9 µM; in the assay with TK-10 renal, 16.5 µM; in the assay with OVCAR-8 ovarian, 17.8 µM; in the assay on CAKI-1 renal, 12.6 µM; in the assay with OVCAR-5 ovarian, 15.6 µM; in the assay on EKVX NSCLC it was 14 µM. Moreover, the GI50 in the assay on M14 melanoma is 2.85 µM; with 786-0 renal, 11.4 µM; in the assay on HCT-116 colon, 5.9 µM; with HT29 colon, 2.16 µM. In addition, the TGI worked out at 22.9 µM with SW-620 colon; 30.7 µM with TK-10 renal; 33.3 µM in the assay on OVCAR-8 ovarian; 28.8 µM with CAKI-1 renal; 31.2 µM with OVCAR-5 ovarian; 28.3 µM with EKVX NSCLC. In addition, the TGI amounted to 10.4 µM with M14 melanoma, 27 µM with 786-0 renal, 20.6 µM with HCT-116 colon and 4.92 µM with HT29 colon.
Consider `CC[C@]12C=CCN3CC[C@@]4(c5ccc(OC)cc5N(C)[C@H]4[C@@](O)(C(=O)OC)[C@@H]1OC(=O)CCC[P+](c1ccccc1)(c1ccccc1)c1ccccc1)[C@@H]32`, for which the GI50 with SW-620 colon is 1.01 µM and 0.749 µM; with TK-10 renal, 1.59 µM and 1.28 µM; in the assay on OVCAR-8 ovarian, 1.45 µM and 1.59 µM; in the assay on CAKI-1 renal, 4.67 µM and 2.8 µM; in the assay on OVCAR-5 ovarian it was 1.19 µM and 1.38 µM; in the assay on EKVX NSCLC it was 1.17 µM and 2.73 µM. Besides, the GI50 in the assay with M14 melanoma was 0.762 µM and 1.05 µM; in the assay with 786-0 renal, 2.13 µM; with HCT-116 colon, 0.727 µM and 0.627 µM; in the assay on HT29 colon, 0.334 µM and 0.403 µM. The TGI with SW-620 colon is 7.04 µM and 11.4 µM; with TK-10 renal it was 6.46 µM and 3.3 µM; with OVCAR-8 ovarian, 6.77 µM and 9.71 µM; with CAKI-1 renal it was 12.3 µM and 10.4 µM; with OVCAR-5 ovarian it was 5.91 µM and 11 µM; in the assay on EKVX NSCLC, 10 µM and 18.2 µM. Further, the TGI with M14 melanoma was 2.93 µM and 2.85 µM; in the assay with 786-0 renal, 8.03 µM; with HCT-116 colon it was 5.59 µM and 10.4 µM; in the assay with HT29 colon, 4.91 µM and 2.78 µM.
With `O=S(=O)(Nc1cc(F)cc(Cl)c1)c1ccc(-c2cnc(C3CC3)o2)cc1`, the GI50 was 0.599 µM in the assay with SW-620 colon; 6.29 µM in the assay on TK-10 renal; 3.72 µM in the assay on OVCAR-8 ovarian; 0.595 µM with CAKI-1 renal; 4.43 µM with OVCAR-5 ovarian; 4.86 µM in the assay with EKVX NSCLC. In addition, the GI50 is 0.923 µM in the assay on M14 melanoma, 4.88 µM with 786-0 renal, 0.719 µM in the assay on HCT-116 colon and 0.515 µM in the assay with HT29 colon. Moreover, the TGI in the assay with SW-620 colon is 15.5 µM; in the assay with TK-10 renal it was 29.6 µM; with OVCAR-8 ovarian it was 21.5 µM; in the assay with CAKI-1 renal it was 17.5 µM; with OVCAR-5 ovarian, 21.5 µM; with EKVX NSCLC, 39.1 µM. The TGI came out at 15.5 µM with M14 melanoma, 20.9 µM in the assay on 786-0 renal, 16.4 µM in the assay on HCT-116 colon and 10.6 µM with HT29 colon.
In the case of `Cc1cc(Br)cc(C)c1NC(=O)C(=O)C(C(=O)c1ccc2ccccc2c1)C1OC(=O)c2ccccc21` (stereo not given), the TGI in the assay with SW-620 colon amounted to 28.1 µM; in the assay with TK-10 renal, 36.9 µM; in the assay on OVCAR-8 ovarian, 22.8 µM; in the assay on CAKI-1 renal, 51.1 µM; in the assay with OVCAR-5 ovarian, 19.7 µM; with EKVX NSCLC, 65.3 µM. For the same molecule, the TGI in the assay on M14 melanoma is 30.2 µM; in the assay with 786-0 renal, 19.3 µM; with HCT-116 colon, 29.4 µM; with HT29 colon, 41.7 µM.
`O=C(CCCn1ccnc1[N+](=O)[O-])NCCn1cncc1[N+](=O)[O-]`: the TGI in the assay with SW-620 colon, in the assay with TK-10 renal, with OVCAR-8 ovarian, in the assay on CAKI-1 renal, in the assay with OVCAR-5 ovarian and with EKVX NSCLC was over 100 µM in each case. Also, the TGI with M14 melanoma, in the assay with 786-0 renal, in the assay with HCT-116 colon and in the assay on HT29 colon was over 100 µM in each case.
